Source: ChEMBL document CHEMBL1201862, “PubChem BioAssay data set” (2004)
Activity calls are given as the source filed them.

What was measured:
[1] = target: Metabotropic glutamate receptor 7 (Homo sapiens, UniProt Q14831); assay: mGlu7 positive allosteric modulators, dose response, cell-based, calcium mobilization, Galpha15 (AID 743384); format: functional
[2] = inhibitors of PGC1a acetylation in cells, dose response, cell-based, cherry-picked samples (AID 720514); format: functional;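 also: potency may reflect raised or lowered acetylation signal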
[3] = miR-122 activators in hepatoma reporter cells, dose response, cell-based, Huh7 psiCHECK-miR122, Renilla luciferase, cherry-picked (AID 651956); format: functional;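 also: huh7 hepatoma cells stably carrying a psiCHECK-2 miR-122 sensor plasmid; renilla luciferase signal reporting endogenous miR-122 activity after 48 h compound exposure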
[4] = HEK293T cytotoxicity, dose response, cytotoxicity control for miR-122 modulator project, cell-based, inhibitor set, cherry-pick, set 2 (AID 720697); format: functional
[5] = HEK293T cytotoxicity, dose response, cytotoxicity control for miR-122 modulator project, cell-based, activator set, cherry-pick (AID 720690); format: functional;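 also: HEK293T human cells scored for general mammalian cytotoxicity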
[6] = A549 cell cytotoxicity, dose response, cytotoxicity control, 24 h, CellTiter-Glo luminescence, cherry-picks (AID 1053115); format: functional, cell-based; details: A549, 24 h
[7] = target: T1, Sentrin-specific protease 7 (Homo sapiens, UniProt Q9BQF6); format: functional;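 also: Luminescence-based dose-response confirmation of ultra-high-throughput screening hits, measuring inhibition of SENP7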
T1 sequence (Q9BQF6 whole entry): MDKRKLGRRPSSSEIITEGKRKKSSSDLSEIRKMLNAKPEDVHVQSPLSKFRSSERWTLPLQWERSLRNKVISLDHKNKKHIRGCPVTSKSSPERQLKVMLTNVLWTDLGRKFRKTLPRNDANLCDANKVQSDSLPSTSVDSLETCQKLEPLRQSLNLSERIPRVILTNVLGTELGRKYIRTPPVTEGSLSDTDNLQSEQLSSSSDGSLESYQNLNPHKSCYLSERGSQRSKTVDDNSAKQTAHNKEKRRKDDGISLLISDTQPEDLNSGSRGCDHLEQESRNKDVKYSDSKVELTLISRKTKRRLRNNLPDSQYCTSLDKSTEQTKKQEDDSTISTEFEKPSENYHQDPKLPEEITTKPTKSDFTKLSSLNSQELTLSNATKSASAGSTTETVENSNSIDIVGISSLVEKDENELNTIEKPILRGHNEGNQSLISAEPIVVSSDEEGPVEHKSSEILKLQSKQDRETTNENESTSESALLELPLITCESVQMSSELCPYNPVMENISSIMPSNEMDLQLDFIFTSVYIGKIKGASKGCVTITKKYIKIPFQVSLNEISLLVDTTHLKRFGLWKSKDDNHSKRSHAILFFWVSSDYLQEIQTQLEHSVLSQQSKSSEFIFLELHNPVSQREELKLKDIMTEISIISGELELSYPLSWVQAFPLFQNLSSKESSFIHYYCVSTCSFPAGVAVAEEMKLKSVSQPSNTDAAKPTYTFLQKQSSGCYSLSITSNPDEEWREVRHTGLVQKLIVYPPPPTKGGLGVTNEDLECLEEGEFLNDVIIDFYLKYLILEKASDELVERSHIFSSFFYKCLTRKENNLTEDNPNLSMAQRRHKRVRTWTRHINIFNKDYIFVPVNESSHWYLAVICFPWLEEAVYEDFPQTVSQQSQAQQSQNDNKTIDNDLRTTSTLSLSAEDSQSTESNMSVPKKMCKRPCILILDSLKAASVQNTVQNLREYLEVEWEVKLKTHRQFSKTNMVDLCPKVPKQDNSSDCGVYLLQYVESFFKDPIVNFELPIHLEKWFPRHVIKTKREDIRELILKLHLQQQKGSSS

[8] = target: T2, Oxysterols receptor LXR-beta (Homo sapiens, UniProt P55055); format: functional, cell-based;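 also: Cell-based luminescence dose-response assay of agonist activity at LXR, run as a confirmatory counterscreen to a daf-12 agonist screen; HEK293 cells with Gal4-LXR fusion and GAL4-driven luciferase reporter; agonist potency from rising luciferase signal of a Gal4-LXR reporter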
T2 sequence (P55055 whole entry): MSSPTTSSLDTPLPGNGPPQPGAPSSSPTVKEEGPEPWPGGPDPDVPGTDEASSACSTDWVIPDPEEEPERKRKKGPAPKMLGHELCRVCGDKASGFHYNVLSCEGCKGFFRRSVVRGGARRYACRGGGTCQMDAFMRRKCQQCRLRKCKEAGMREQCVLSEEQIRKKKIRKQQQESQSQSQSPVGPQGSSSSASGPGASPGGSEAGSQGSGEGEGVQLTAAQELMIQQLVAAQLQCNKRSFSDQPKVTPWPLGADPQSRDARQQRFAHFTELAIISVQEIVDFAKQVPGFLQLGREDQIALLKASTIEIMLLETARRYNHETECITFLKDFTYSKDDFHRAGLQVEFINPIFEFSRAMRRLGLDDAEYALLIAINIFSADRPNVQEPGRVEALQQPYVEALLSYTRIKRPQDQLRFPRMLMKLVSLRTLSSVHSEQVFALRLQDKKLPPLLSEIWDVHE

Caspase-3 = target: T3, Caspase-3 (Homo sapiens, UniProt P42574); format: functional;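 also: Dose-response selectivity test against caspase-3 for candidate inhibitors of sentrin-specific proteases (SENPs)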
T3 sequence (P42574 whole entry): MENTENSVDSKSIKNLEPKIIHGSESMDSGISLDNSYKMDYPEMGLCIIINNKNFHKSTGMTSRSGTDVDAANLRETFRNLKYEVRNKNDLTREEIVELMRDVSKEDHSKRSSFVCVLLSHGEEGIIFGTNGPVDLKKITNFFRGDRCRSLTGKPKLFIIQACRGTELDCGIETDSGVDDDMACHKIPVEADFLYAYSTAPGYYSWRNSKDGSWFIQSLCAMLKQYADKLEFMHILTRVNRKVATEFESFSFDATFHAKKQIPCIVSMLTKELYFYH

[9] = target: T4, Sentrin-specific protease 6 (Homo sapiens, UniProt Q9GZR1); format: functional;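 also: Luminescence-based dose-response confirmatory assay of SENP6 inhibition, following up an ultra-high-throughput screen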
T4 sequence (Q9GZR1 whole entry): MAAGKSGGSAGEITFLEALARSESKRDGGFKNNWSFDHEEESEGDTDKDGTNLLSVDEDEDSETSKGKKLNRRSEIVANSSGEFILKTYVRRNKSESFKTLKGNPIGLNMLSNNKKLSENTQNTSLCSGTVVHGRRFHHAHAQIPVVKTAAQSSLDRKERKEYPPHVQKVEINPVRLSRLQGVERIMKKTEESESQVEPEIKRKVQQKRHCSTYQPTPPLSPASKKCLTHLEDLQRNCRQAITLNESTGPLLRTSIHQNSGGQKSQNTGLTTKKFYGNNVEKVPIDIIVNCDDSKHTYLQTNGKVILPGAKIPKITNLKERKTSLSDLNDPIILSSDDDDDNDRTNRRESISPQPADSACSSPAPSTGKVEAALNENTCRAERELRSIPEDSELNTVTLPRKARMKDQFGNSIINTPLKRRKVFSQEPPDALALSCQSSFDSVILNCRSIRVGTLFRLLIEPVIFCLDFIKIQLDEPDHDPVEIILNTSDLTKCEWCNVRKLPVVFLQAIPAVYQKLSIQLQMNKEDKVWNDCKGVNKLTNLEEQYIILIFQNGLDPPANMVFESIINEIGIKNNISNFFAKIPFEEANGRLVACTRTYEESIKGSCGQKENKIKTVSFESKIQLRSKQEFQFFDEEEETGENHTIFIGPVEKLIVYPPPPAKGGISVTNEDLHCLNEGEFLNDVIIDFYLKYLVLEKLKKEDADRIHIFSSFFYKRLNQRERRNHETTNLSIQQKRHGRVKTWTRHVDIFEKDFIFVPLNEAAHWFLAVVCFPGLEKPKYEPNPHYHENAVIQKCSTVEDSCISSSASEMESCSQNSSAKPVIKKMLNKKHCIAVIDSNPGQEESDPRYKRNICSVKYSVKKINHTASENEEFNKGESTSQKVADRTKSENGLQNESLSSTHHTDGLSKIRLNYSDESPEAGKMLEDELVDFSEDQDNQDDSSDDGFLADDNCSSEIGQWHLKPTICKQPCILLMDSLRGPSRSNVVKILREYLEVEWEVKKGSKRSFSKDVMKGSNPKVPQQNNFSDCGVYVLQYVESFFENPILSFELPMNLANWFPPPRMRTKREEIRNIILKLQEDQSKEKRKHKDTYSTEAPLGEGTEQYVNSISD

[10] = target: T5, Sentrin-specific protease 8 (Homo sapiens, UniProt Q96LD8); format: functional;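 also: luminescence read-out of SENP8 inhibition, dose-response confirmation following an ultra-high-throughput screen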
T5 sequence (Q96LD8 whole entry): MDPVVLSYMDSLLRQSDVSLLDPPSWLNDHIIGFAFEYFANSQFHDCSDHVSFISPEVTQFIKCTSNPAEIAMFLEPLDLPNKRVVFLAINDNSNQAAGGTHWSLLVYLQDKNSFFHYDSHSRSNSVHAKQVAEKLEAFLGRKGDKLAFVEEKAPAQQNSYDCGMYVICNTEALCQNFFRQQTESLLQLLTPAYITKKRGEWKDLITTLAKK

[11] = inhibitors of fibronectin matrix deposition, dose response, AH1F cells, Alexa488-FN fluorescence, cherry-picks (AID 1035475); format: functional, cell-based
[12] = HEK293 cell cytotoxicity, dose response, cytotoxicity control, cherry-picks, set 5 (AID 1053117); format: functional, cell-based
[13] = NIH:OVCAR-3 ovarian cancer cell cytotoxicity, dose response, PAX8 inhibitor project, plate reader, dry powder samples (AID 743044); format: functional, cell-based
[14] = non-specific cell cytotoxicity, dose response, cytotoxicity control for PAX8 inhibitor project, plate reader, dry powder samples (AID 743021); format: functional, cell-based
[15] = cytotoxicity in COV362 ovarian cancer cells, dose response, cytotoxicity control for PAX8 inhibitor project, cell-based, plate reader, dry powder, SA12 (AID 743144); format: functional
Paired box protein Pax-8 = Paired box protein Pax-8 (Homo sapiens, UniProt Q06710); assay: inhibitors of PAX8-driven TPO luciferase reporter, dose response, RMG-I cells, cherry-pick (AID 687027); format: functional, cell-based;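 also: luciferase reporter driven by Pax8 target thyroperoxidase promoter measured by SteadyGlo luminescence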
[16] = cytotoxicity dependent on PAX8, dose response, cell-based, plate reader, dry powder (AID 743049); format: functional
[17] = cytotoxicity in COV434 cells, dose response, cytotoxicity control for PAX8 inhibitor project, cell-based, plate reader, dry powder, SA7 (AID 743145); format: functional
[18] = A2780 ovarian cancer cell cytotoxicity, dose response, cytotoxicity control, plate reader, dry powder samples (AID 743046); format: functional, cell-based
[19] = IOSE-T80 ovarian epithelial cell cytotoxicity, dose response, cytotoxicity control for PAX8 inhibitor project, plate reader, dry powder samples (AID 743045); format: functional, cell-based
[20] = cytotoxicity in OVCAR4 cells, dose response, cytotoxicity control for PAX8 inhibitor project, cell-based, plate reader, dry powder, SA11 (AID 743150); format: functional; details: OVCAR-4
[21] = PAX2 cell-based inhibition, dose response, selectivity assay for PAX8 inhibitor project, plate reader, dry powder samples (AID 743048); format: functional;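 also: HEK293 cells carrying a WT1 promoter luciferase reporter driven by expressed Pax2; potency is for inhibition of Pax2 driven reporter signal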
[22] = PAX5 activity inhibitors, dose response, selectivity assay for PAX8 inhibitor project, cell-based, plate reader, dry powder samples (AID 743047); format: functional;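 also: HEK293 cells carrying a Pax5 driven CD19 promoter luciferase reporter; potency of inhibitors that lower reporter luminescence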
[23] = cytotoxicity in OV-90 ovarian cancer cells, dose response, PAX8 inhibitor project, cell-based, plate reader, dry powder, SA8 (AID 743149); format: functional
INS1 = assay: beta cell apoptosis inhibitors, cytokine rescue, dose response, luminescence, retest (AID 449756); format: functional, cell-based; details: Rattus norvegicus;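 also: cell death triggered by IL-1 beta plus TNF-alpha plus IFN-gamma mixture; protective hits raise ATP signal compared with cytokine alone wells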

Paired box protein Pax-8, sequence (Q06710 whole entry): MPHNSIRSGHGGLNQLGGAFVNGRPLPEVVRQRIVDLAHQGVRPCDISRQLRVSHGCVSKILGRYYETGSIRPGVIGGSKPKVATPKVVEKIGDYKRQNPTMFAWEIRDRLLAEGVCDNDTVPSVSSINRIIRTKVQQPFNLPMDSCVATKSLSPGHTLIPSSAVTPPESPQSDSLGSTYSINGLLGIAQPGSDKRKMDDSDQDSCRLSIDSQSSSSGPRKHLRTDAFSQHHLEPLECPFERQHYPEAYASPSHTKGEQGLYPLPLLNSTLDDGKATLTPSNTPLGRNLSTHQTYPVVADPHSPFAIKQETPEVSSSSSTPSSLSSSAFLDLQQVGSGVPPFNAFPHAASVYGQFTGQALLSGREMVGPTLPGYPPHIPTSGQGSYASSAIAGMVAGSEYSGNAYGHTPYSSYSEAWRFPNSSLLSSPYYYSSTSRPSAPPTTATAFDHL
Metabotropic glutamate receptor 7, sequence (Q14831 whole entry): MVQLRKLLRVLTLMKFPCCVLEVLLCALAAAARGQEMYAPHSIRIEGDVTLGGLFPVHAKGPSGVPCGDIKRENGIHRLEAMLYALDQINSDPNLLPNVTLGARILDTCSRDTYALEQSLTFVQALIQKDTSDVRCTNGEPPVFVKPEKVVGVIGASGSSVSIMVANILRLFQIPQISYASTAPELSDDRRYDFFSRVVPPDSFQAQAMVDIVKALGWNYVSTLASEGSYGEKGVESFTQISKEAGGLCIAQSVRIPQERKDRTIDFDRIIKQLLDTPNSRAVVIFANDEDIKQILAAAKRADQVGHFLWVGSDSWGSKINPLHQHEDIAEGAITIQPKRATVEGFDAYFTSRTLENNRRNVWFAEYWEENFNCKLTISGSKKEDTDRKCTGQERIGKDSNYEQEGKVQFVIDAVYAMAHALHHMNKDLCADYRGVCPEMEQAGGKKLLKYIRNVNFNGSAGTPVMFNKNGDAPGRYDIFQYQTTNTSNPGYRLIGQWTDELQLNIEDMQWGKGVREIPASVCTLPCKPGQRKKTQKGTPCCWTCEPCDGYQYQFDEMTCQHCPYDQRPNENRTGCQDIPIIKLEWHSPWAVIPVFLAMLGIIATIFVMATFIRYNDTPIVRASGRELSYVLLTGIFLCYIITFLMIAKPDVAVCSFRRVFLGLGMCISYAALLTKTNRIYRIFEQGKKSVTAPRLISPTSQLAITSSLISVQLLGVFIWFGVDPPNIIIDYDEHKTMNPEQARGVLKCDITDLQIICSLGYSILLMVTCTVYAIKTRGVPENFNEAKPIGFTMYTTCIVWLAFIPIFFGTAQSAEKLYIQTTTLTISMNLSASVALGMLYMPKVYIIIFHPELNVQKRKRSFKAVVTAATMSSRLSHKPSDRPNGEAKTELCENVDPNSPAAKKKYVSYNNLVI

SMILES: COC(=O)c1ccc(-n2c(C)cc(C(=O)CSCc3cccc(C)c3)c2C)cc1
- EC50 [1]: 10 µM (active)

SMILES: CCOc1ccnc(OCC)c1Br
- AC50 [2]: 32.8 µM (active)

SMILES: C[C@H](CO)N1C[C@H](C)[C@H](CN(C)Cc2ccc(-c3ccccc3)cc2)Oc2cc(C#C[C@@H](C)O)ccc2S1(=O)=O
- AC50 [3]: 37.3 µM (active)
- AC50 [4]: 2.82 µM (active)
- AC50 [5]: 12.3 µM (active)
- AC50 [6]: 50.9 µM (active)

SMILES: Cc1cc(C)nc(Nc2nc(-c3ccccc3)cs2)n1
- EC50 (cells): > 67.5 µM (inactive)
- IC50 [7]: 1.89 µM (active)
- EC50 [8]: > 67.5 µM (inactive)
- IC50 (Caspase-3): > 100 µM (inactive)
- IC50 [9]: 2.1 µM (active)
- IC50 [10]: 3.29 µM (active)

SMILES: C[C@H]1CN([C@@H](C)CO)C(=O)c2cc(NC(=O)C3CCCCC3)ccc2O[C@@H]1CN(C)Cc1ccc(-c2ccccc2)cc1
- AC50 [11]: > 70 µM (inactive)
- AC50 [12]: 51.3 µM (active)

SMILES: O=C(Nc1cccc(Cl)c1)Nc1nnc(CSCCOc2ccc(Cl)cc2)s1
- AC50 [13]: 15 µM (active)
- AC50 [14]: 16 µM (active)
- AC50 [15]: 10.7 µM (active)
- AC50 (Paired box protein Pax-8): 5.94 µM (active)
- AC50 [16]: 5.65 µM (active)
- AC50 [17]: 12.8 µM (active)
- AC50 [18]: 6.08 µM (active)
- AC50 [19]: 14.6 µM (active)
- AC50 [20]: 22.2 µM (active)
- AC50 [21]: 8.06 µM (active)
- AC50 [22]: 4.51 µM (active)
- AC50 [23]: 26.1 µM (active)
- AC50 (INS1): 3.05 µM (active)
